Our source for the XC50 values is ChEMBL document CHEMBL1157539, “Thousands of chemical starting points for antimalarial lead identification” (Nature, 2010).

The structures appear in SMILES notation.

For the experiment, the system named is Plasmodium falciparum. In words: GSK_TCMDC: Inhibition of Plasmodium falciparum 3D7 in whole erythrocytes, using parasite LDH activity as an index of growth. To be noted: Plasmodium falciparum, 3D7. The experiment is classed as functional, organism-based.
For the compound `CCN(CC)CCN(Cc1ccc(-c2ccc(C(F)(F)F)cc2)cc1)C(=O)Cn1c(CCc2cc(F)ccc2F)nc(=O)c2ccccc21`, the XC50 was 828 nM.

Take `Cc1ccc(OCC2CCN(c3ncc(C(=O)NCCCN4CCCC4=O)cc3Cl)CC2)cc1`: the XC50 was 1260 nM.

In turn, `Cc1cccc2nc(-c3ccc(-c4cccc(NC(=O)C(C)CN5CCN(C)CC5)c4)cc3)[nH]c12` (stereo not given) registered an XC50 of 739 nM.

In turn, `O=C(Nc1cccc(-c2csc(-c3nc4ccccc4[nH]3)c2)c1)c1ccoc1` showed an XC50 of 211 nM.

Take `O=C(NC1CCN(Cc2cccc(C(F)(F)F)c2)CC1)c1ccc(-c2cccc(Cl)c2)s1`: the XC50 amounted to 1130 nM.

With `Cn1nccc1C(=O)NCCNCc1cccc(-c2ccc(-c3nc4ccccc4[nH]3)s2)c1`, the XC50 was 303 nM.

`Cc1ccc(NC(=O)c2ccc(-c3cc4cc(Cl)c(Cl)cc4[nH]3)cc2)cc1OCCN1CCCC1` had an XC50 of 991 nM.

`COC(=O)c1ccc(CCC(C)NCC(O)c2cccc(C(F)(F)F)c2)cc1` (stereo not given) yielded an XC50 of 411 nM.

`Nc1c2c(nc3ccc(NC(=O)Cc4ccccc4)cc13)CCCC2` displayed an XC50 of 755 nM.

`O=C(NCCc1ccccc1)N(Cc1cccc(-c2ccc(CNCCc3ccccc3)cc2)c1)C1CCN(Cc2ccccc2)CC1` had an XC50 of 613 nM.

In turn, `CCCN(CCCN(CCCN(CCC)C(C)C)c1cc(C)nc(Nc2ccc(Cl)cc2)n1)C(C)C` showed an XC50 of 113 nM.

Regarding `c1cncc(Oc2ccc(Nc3ccnc4cc(-c5cccc(CNCCN6CCOCC6)c5)ccc34)cc2)c1`, the XC50 amounted to 112 nM.

Compound `Cc1csc2nc(-c3ccccn3)nc(Nc3ccc4ncsc4c3)c12` gave an XC50 of 1110 nM.

With `COc1ccc2ncc(F)c(CCN3CC(O)C(CNCc4ccc5oc(=O)ccc5c4)C3)c2n1` (stereo not given), the XC50 stood at 949 nM.

`CC(C)c1ccc(NC(=O)NC2CCN(CCCCCNC(=O)/C=C/c3ccc(Cl)c(Cl)c3)CC2)cc1` had an XC50 of 674 nM.

`COc1ccc(C(=O)NCc2ccc(N)nc2C)cc1Nc1ncc(-c2cccc(N(C)C)c2)cn1` showed an XC50 of 897 nM.

`O=C(Cc1c[nH]cn1)Nc1cccc(-c2cccc(-c3nc4ccccc4[nH]3)c2)c1` yielded an XC50 of 1020 nM.

Consider `COC(=O)c1ccc(NC(=O)Nc2ccc(Cn3ncc(N4CCCNCC4)c(Cl)c3=O)cc2)cc1`, for which the XC50 amounted to 605 nM.

`O=C(Nc1cccc(-c2cc3ccccc3[nH]2)c1)C1CCN(Cc2ccccc2O)CC1` showed an XC50 of 938 nM.

Compound `CN(c1ccc(NC(=O)c2ccc(F)cc2)cc1)C1CCN(Cc2cccc(F)c2)C1` (stereo not given) had an XC50 of 1410 nM.

In the case of `CC(Cc1ccc(NC(=O)[C@@H](C)NCCc2cccc(Cl)c2)cc1)NCCc1cccc(Cl)c1` (stereo not given in full), the XC50 was 778 nM.

In turn, `O=S(=O)(c1ccccc1OC(F)(F)F)C1CC2CCC(C1)N2S(=O)(=O)c1cccc(C(F)(F)F)c1` (stereo not given) returned an XC50 of 665 nM.

For `Cc1nc(C)c(-c2ccc(-c3ccc(F)cc3)cc2)c(O)c1Br`, the XC50 amounted to 1070 nM.

In turn, `N#CN1CC[C@H](CS(=O)(=O)c2cccc(Br)c2)C1` displayed an XC50 of 874 nM.

The compound `CC(C)NCc1ccc(-c2ccc(-c3nc4cc(C(F)(F)F)ccc4[nH]3)s2)cc1` displayed an XC50 of 181 nM.

The compound `COc1cc(C(=O)N2CCC(CCN3CCC4(CC3)CN(S(C)(=O)=O)c3ccccc34)CC2Cc2ccc(Cl)c(Cl)c2)cc(OC)c1OC` (stereo not given) gave an XC50 of 843 nM.

For the compound `CCc1cc(=O)[nH]c(-n2nc(C)cc2NC(=O)CC(c2ccccc2)c2ccccc2)n1`, the XC50 was determined as 964 nM.

`Cc1nc(NC2=NCN(CCCN3CCOCC3)CN2)nc2c(C)cccc12` had an XC50 of 1130 nM.

For `Cc1cc(C)c(CON2C(=N)N=C(N)NC2(C)C)cc1C`, the XC50 stood at 3.63 nM.

In turn, `COc1cc(C)ccc1N1CCN(CCCCNC(=O)c2ccc(NC(=O)c3ccc(Cl)cc3)cc2)CC1` came in with an XC50 of 700 nM.

In turn, `O=C(Cc1c[nH]cn1)Nc1cccc(-c2ccc(-c3nc4cc(F)ccc4[nH]3)cc2)c1` registered an XC50 of 806 nM.

The compound `Cn1cc(-c2ccnc3[nH]c(-c4cccc(CNC5CCC(O)CC5)c4)cc23)cn1` (stereo not given) had an XC50 of 903 nM.

Compound `CN1CCN(Cc2cccc(Nc3nccc(Nc4ccc(Oc5ccccc5)cc4)n3)c2)CC1` returned an XC50 of 296 nM.

For the compound `Nc1nc(N)c2cc(CNc3ccc(Cl)c(Cl)c3)ccc2n1`, the XC50 turned out to be 1020 nM.

In the case of `COCCN1CCN(Cc2ccc(-c3cccc(-c4nc5ccccc5[nH]4)c3)cc2)CC1`, the XC50 amounted to 1110 nM.

For the compound `CCSc1ccc(C)cc1CON1C(N)=NC(N)=NC1(C)C`, the XC50 stood at 3.2 nM.

In turn, `CCN1CCN(c2ccc(Nc3ccnc4ccc(Br)cc34)cc2)CC1` had an XC50 of 300 nM.

Consider `CC(C)CC(NC(=O)c1cc2ccccc2s1)C(=O)N1CCCCCC1c1ccc(C(C)(C)C)cc1` (stereo not given), for which the XC50 amounted to 857 nM.

On to `N[C@@H](CCNC1CCN(c2cccc(C(F)(F)F)c2)CC1)Cc1ccc(F)c(F)c1`, for which the XC50 was determined as 1290 nM.

`Cn1cncc1C(=O)Nc1cccc(-c2ccc(-c3nc4ccccc4[nH]3)s2)c1`: the XC50 is 796 nM.

`CN1CCN(Cc2cccc(-c3ccc4c(Nc5ccc(Oc6cccnc6)cc5)ccnc4c3)c2)CC1` yielded an XC50 of 192 nM.

Compound `N=C(NCCCCCCNC(=N)NC(=N)c1ccc(Cl)cc1)NC(=N)c1ccc(Cl)cc1` registered an XC50 of 212 nM.

Take `O=C(Nc1cc(C(F)(F)F)ccc1-n1cncn1)C1(c2ccccc2)CC1`: the XC50 worked out at 60.1 nM.

With `N#Cc1ccc(-c2ccc(C(=O)NCCCCN3CCC(c4ccc5c(c4OCc4ccncc4)CCCC5)CC3)cc2)cc1`, the XC50 is 757 nM.

`COc1ccc(CC(C)NCC(O)c2cccc(Cl)c2F)cc1` (stereo not given) showed an XC50 of 1080 nM.

On to `CCCOc1c(CCNCCCCNCCc2ccc3ccccc3c2OCCC)ccc2ccccc12`, for which the XC50 amounted to 482 nM.

For `CCCc1cc(Cc2cnc(N)nc2N)cc(CCC)c1OCCCCC(=O)OCC`, the XC50 amounted to 54.1 nM.

Compound `Cc1ccc2[nH]ncc2c1N(CC1CCCCC1)c1ccnc(Nc2ccc(OCC(O)CN3CC=CCC3)cc2)n1` (stereo not given) registered an XC50 of 622 nM.

`Cc1ccccc1C1CCN(C2CCC(NC(=O)/C=C/c3cccc(C(F)(F)F)c3)CC2)CC1` (stereo not given) had an XC50 of 1520 nM.

Turning to `COc1cc(OC)cc(C(=O)N2CCOC(CCN3CCC(c4ccccc4)CC3)(c3ccc(Cl)c(Cl)c3)C2)c1` (stereo not given), the XC50 came out at 442 nM.

`CC(C)(C)c1ccc(NC(=O)c2ccc(CN3CCCN(Cc4ccc(F)cc4)CC3)cc2)cc1` gave an XC50 of 1110 nM.

On to `CC1(C)N=C(N)N=C(N)C1c1ccc(Cl)cc1` (stereo not given), for which the XC50 worked out at 259 nM.

`O=C(/C=C/c1ccc(Cl)c(Cl)c1)NCCCCCCN1CCN(C(=O)Nc2cc(Cl)nc(Cl)c2)CC1` had an XC50 of 784 nM.

As for `COc1ccc(C=C2SC(=O)N=C2Nc2ccccc2)c(OC)c1`, the XC50 is 470 nM.

As for `COc1ccc(C=CC(=O)Nc2ccc(N3CCCC3)cc2)cc1`, the XC50 came out at 1280 nM.

On to `COc1cc(CNC[C@@H](O)[C@H](Cc2ccccc2)NC(=O)c2cc(C3CCCC3)cc(N3CCCC3=O)c2)cc(OC)c1`, for which the XC50 turned out to be 224 nM.

For the compound `COc1ccc2nccc([C@@H](O)CN3CCC(NC(=O)/C=C/c4ccc5ccccc5n4)CC3)c2c1`, the XC50 is 993 nM.

`CCOC(=O)C1=C(C)N=c2sc(=Cc3cc(Cl)ccc3O)c(=O)n2C1c1cc(OC)c(OC)cc1Br` (stereo not given) came in with an XC50 of 993 nM.

`Cc1ccc(-n2nc3ccc(NC(=O)c4ccc([N+](=O)[O-])o4)cc3n2)cc1C` showed an XC50 of 397 nM.

Turning to `NC(=O)c1ccc(NCC(=O)Nc2cccc(-c3cccc(-c4nc5cc(C(F)(F)F)ccc5[nH]4)c3)c2)cc1`, the XC50 came out at 270 nM.

`COCCNCc1cccc(-c2ccc(CNC3CCN(Cc4ccccc4)CC3)cc2)c1` displayed an XC50 of 508 nM.

Regarding `O=C(C=Cc1ccc(Cl)c(Cl)c1)NCCCCCN1CCC(CCCNS(=O)(=O)c2ccc(Br)cc2)CC1`, the XC50 amounted to 1130 nM.

The compound `CN(C)CCOc1ccc2c(c1)OC(C)(C)C=C2c1cccc2ccccc12` yielded an XC50 of 785 nM.

For the compound `c1cc(CN2CCC(CCN3CCCCC3)CC2)cc(-c2cccc(-c3nc4ccccc4[nH]3)c2)c1`, the XC50 was found to be 140 nM.

The compound `Cc1ccc(C(C)C)cc1CON1C(=N)N=C(N)NC1(C)C` gave an XC50 of 3.2 nM.

In the case of `Oc1ccc(CCNc2nc(NCCCOc3cccc(-c4ccccc4)c3)nc(N3CCNCC3)n2)cc1`, the XC50 turned out to be 1130 nM.

The compound `N#Cc1ccc(NC(=O)c2ccc(Cc3ccc4c(c3)CCN(C3CCC3)CC4)cn2)cc1` registered an XC50 of 1120 nM.

Take `Cc1c(C(=O)C2CC2CN2CCC(N3CCCCC3)CC2)sc2ccccc12` (stereo not given): the XC50 worked out at 1020 nM.

Turning to `COc1ccc(-c2nonc2NC(=O)c2cccc(Cl)c2)cc1OC`, the XC50 turned out to be 876 nM.

For the compound `Oc1ccc2ccccc2c1C=NNc1nc(=Nc2ccccc2)[nH]c(=Nc2ccccc2)[nH]1`, the XC50 was 667 nM.

`Cc1cc(NC(=O)c2ccc(-c3ccccc3)cc2)no1` displayed an XC50 of 1020 nM.

As to `O=S(=O)(c1ccc(Cl)cc1Cl)N1CCCCC(c2ccc(C(F)(F)F)cc2)=N1`, the XC50 came out at 160 nM.

As to `CCOc1ccc(-c2nonc2NC(=O)c2ccccc2F)cc1OCC`, the XC50 worked out at 841 nM.

`CC(C)=CC1C(C(=O)n2c(=N)[nH]c3ccccc32)C1(C)C` (stereo not given) registered an XC50 of 193 nM.

Compound `O=C(NCc1ccc(S(=O)(=O)N2CCC(CN3CCC(c4c[nH]c5ccccc45)CC3)CC2)s1)c1ccccc1` returned an XC50 of 843 nM.

As for `O=C(Nc1ccc2c(c1)CCC2)c1cccc(CN2CCCN(Cc3cccc(O)c3)CC2)c1`, the XC50 came out at 1080 nM.

For `CCn1ncc2c(N3CCCC3=O)cc(C(=O)N[C@@H](Cc3ccccc3)[C@H](O)CNC(C)(C)c3cccc(OC)c3)cc21`, the XC50 is 107 nM.

Compound `N=C1N=C(N)NC2(CCCCC2)N1OCCOc1ccc(Cc2ccccc2)cc1` displayed an XC50 of 1130 nM.

As to `COc1cc(F)c2ncc(Cl)c(CCN3CCC(NCc4ccc5c(c4)NC(=O)CS5)CC3)c2c1`, the XC50 was 313 nM.

As for `CNC(=O)Cc1ccc(C(=O)Nc2cccc(-c3csc(-c4nc5ccccc5[nH]4)c3)c2)cc1`, the XC50 was 273 nM.

With `COc1ccc(C(=O)C2CCN(CCCCNC(=O)c3ccc(NC(=O)c4cc(Cl)cc(Cl)c4)cc3)CC2)cc1`, the XC50 came to 173 nM.

As for `CC(=O)c1ccc(S(=O)(=O)N2CCC(C(=O)Nc3ccccc3N3CCCC3)CC2)cc1`, the XC50 was 833 nM.

`CC(=O)Nc1ccc(C(=O)Nc2ccc(-c3cccc(-c4nc5cc(F)ccc5[nH]4)c3)cc2)cn1` yielded an XC50 of 231 nM.

Consider `Cc1nc2ccc3ccc(CNc4ccc5c(c4)CN([C@H](CCC(=O)O)C(=O)O)C5=O)cc3c2c(=O)[nH]1`, for which the XC50 amounted to 860 nM.

For the compound `COc1cc2nc(N3CCC(CCCC4CCNCC4)CC3)nc(NCc3ccccn3)c2cc1OC`, the XC50 stood at 757 nM.
